In ChEMBL document CHEMBL6114982, “Structural optimization and characterization of highly potent and selective STAT3 inhibitors for the treatment of triple negative breast cancer” (Eur J Med Chem, 2025):
The source made the active and inactive calls. No cut-off for these calls is given here.

Assays:
[1] = test system: BT-549; assay: Effect on Akt phosphorylation level in human BT-549 cells at 0.05 to 0.5 uM measured after 48 hrs by Western blot analysis; assay type: functional, cell-based; details: dose 0.05-0.5 µM
[2] = molecular target: T1, Signal transducer and activator of transcription 3 (Homo sapiens, UniProt P40763); assay: Inhibition of STAT3 nuclear translocation in human MDA-MB-231 cells assessed as decrease in p-STAT3 at Tyr705 residue at 0.05 to 0.5 uM preincubated for 48 hrs followed by IL-6 addition and measured after 2 hrs by Immunofluorescence analysis; assay type: cell-based; details: dose 0.05-0.5 µM, time 50.0 hrs
[3] = test system: MDA-MB-231; assay: Downregulation of cyclin D1 level in human MDA-MB-231 cells measured after 48 hrs by Western blot analysis; assay type: functional, cell-based; details: dose 0.05-0.5 µM
[4] = test system: MDA-MB-231; assay: Antitumor activity against human MDA-MB-231 cells xenografted in female nude BALB/c mouse model assessed as reduction in tumor volume at 20 mg/kg, ip administered every other day for 30 days (reference value: 1522.98 millimeter); assay type: functional; details: time 30 day
[5] = test system: BT-549; assay: Effect on STAT5 phosphorylation level in human BT-549 cells at 0.05 to 0.5 uM measured after 48 hrs by Western blot analysis; assay type: functional, cell-based; details: dose 0.05-0.5 µM
[6] = molecular target: T1, Signal transducer and activator of transcription 3; assay: Inhibition of STAT3 in human MDA-MB-231 cells assessed as upregulation of NDUFAB1 level; assay type: cell-based
[7] = Toxicity in female BALB/c nude mouse assessed as effect on liver at 10 to 20 mg/kg, iv measured after 30 days by H and E staining based analysis; assay type: organism-based; details: in vivo, 720 h, dose 10-20 mg/kg, time 30 day
[8] = molecular target: T1, Signal transducer and activator of transcription 3; assay: Inhibition of STAT3 phosphorylation at Tyr705 residue at Tyr705 residue in human MDA-MB-231 cells measured after 8 to 48 hrs by Western blot analysis; assay type: cell-based; details: dose 0.1 µM, time 8-48 hrs

T1 sequence (P40763 whole entry): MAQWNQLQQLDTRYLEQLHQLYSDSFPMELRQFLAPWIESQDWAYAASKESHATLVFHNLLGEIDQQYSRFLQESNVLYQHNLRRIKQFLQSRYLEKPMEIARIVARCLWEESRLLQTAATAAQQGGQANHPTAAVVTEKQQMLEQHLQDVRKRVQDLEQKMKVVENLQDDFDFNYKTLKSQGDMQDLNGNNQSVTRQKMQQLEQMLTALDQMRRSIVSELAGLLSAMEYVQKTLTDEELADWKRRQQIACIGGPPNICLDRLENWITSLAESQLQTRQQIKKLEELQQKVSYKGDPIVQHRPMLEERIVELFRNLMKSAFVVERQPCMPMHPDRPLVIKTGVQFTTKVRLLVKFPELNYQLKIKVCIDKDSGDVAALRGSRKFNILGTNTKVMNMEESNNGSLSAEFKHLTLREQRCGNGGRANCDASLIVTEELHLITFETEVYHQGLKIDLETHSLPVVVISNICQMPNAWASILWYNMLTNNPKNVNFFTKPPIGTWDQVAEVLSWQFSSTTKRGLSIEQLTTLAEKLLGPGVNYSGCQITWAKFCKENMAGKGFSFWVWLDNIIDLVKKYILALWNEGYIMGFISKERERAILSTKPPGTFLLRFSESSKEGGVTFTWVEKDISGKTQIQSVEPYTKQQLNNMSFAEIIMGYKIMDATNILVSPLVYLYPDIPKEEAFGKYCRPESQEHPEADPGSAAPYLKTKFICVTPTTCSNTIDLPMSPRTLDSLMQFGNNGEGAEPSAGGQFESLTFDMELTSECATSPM

- inhibition [2]: Active
- inhibition [6]: Active
- inhibition [8]: Dose-dependent-effect
SMILES: COc1cccc(C(=O)Nc2sc3c(c2C#N)CCN(C(=O)Nc2ccccc2OC)C3)c1
- Activity [1]: inactive
- Activity [3]: Dose-dependent-effect
- tumor volume [4]: 656 mm³
- Activity [5]: inactive
- Activity [7]: Non-toxic
